Results from US8975259B2, “Compositions and methods for inhibiting G protein signaling” (University of Rochester, priority 2007, dated 2015).
Like-named read-outs stand apart in the source and are kept apart here.

Biological target: Gβ1γ2 (UniProt P54311+P63212)
Experiment: Competition phage ELISA: inhibition of SIGK-phage binding to immobilized biotinylated Gβ1γ2
Set-up: made in house; host or cells: Sf9 insect cells (baculovirus; co-expressed with BirA and (His)6-Gαi1, from which βγ was eluted); species or system rat
Conditions: for binding to the G protein β subunit: result in words
Procedure: Phage ELISA assays used to assess peptide binding to wild-type and mutant b-βγ were performed according to standard methods (Smrcka and Scott (2002) Methods Enzymol. 344:557-76). Briefly, 1 μg streptavidin was immobilized in the well of a […] overnight at 4° C. The wells were blocked with 100 μL of 2% bovine serum albumin (BSA) in Tris-buffered saline (TBS) for 1 hour at 4° C. followed by three washes of IX TBS/0.5% TWEEN®. […] The wells were washed, followed by the addition of IxIO^6 to IxIO^10 phage particles and incubated at 4° C. for 3 hours. The wells were then washed six times with TBS/0.5% TWEEN® followed by addition of 40 μL of 1:5000 dilution of anti-M13 antibody (Pharmacia, Uppsala, Sweden) and incubated at room temperature for 1 hour. The wells were washed, followed by the addition of 40 μL of (2,2′-Azino-bis (3-ethylbenzthiazoline)-6-sulfonic acid (ABTS) and the colorimetric reaction was monitored at 405 nm. Nonspecific binding was subtracted for each reading.
A phage ELISA assay was used to determine whether small molecules identified in the computational screen could interact with the Gβy protein interaction surface. […] The screen was based on a reduction in the optical density (OD) of wells containing Gβγ subunits and phage. […] Three background wells contained no βy subunits.
As disclosed herein, biotinylated Gβy subunits were immobilized on the surface of a 96-well plate coated with streptavidin, phage displaying Gβγ-binding peptides were subsequently added and binding in the presence and absence of test compounds detected with an anti-phage antibody.
The phage ELISA assay was used to rapidly screen the ability of compounds to bind to the protein interaction “hot spot” based on the method of Scott et. al (Scott et al., 2001). This assay is performed in the presence of detergent (0.5% Tween) to eliminate non-specific compound aggregation artifacts.
Compounds/DMSO and 0.1×10^10 phage were added simultaneously and subsequently incubated for 1 h at room temperature. Plates were then washed with 1× Tris-buffered saline/0.5% Tween 20 and incubated with anti-M13, HRP-conjugated antibody (Amersham, Chalfont St. Giles, Buckinghamshire, UK). Phage binding was determined by monitoring A405 upon addition of 2,2′-azino-bis(3-ethylbenzothiazoline-6-sulfonic acid) (Sigma Aldrich).

[1] = kind of constant not stated, read-out: binding to the G protein β subunit

SMILES: Cc1c2ccc(=O)cc-2oc2cc(O)ccc12 [6-hydroxy-9-methyl-3H-xanthen-3-one]
- binding to the G protein β subunit: not to bind

SMILES: Nc1ccc(Nc2cc(S(=O)(=O)O)c(N)c3c2C(=O)c2ccccc2C3=O)cc1 [drawing 51]
- IC50 (Table 2, read-out: Elisa IC50): 12 µM

SMILES: Nc1ccc(-c2ccc(Nc3cc(S(=O)(=O)O)c(N)c4c3C(=O)c3ccccc3C4=O)cc2)c(S(=O)(=O)O)c1 [Compound M125]
- IC50 (Table 8, read-out: IC50): 68 µM
- IC50 (Table 18, compounds identified in Elisa screen, read-out: IC50): 18 µM

SMILES: O=C(O)c1ccccc1-c1c2ccc(=O)c(O)c-2oc2c(O)c(O)ccc12
- IC50 (Table 6): 0.2 µM

SMILES: O=C(O)C1CC23C(Cl)C(Cl)C(Cl)C(Cl)C2(CC1c1c2ccc(=O)c(O)c-2oc2c(O)c(O)ccc12)C3(Cl)Cl (centres unmarked)
- IC50 (Table 6): 0.2 µM

SMILES: O=C(O)CCc1c2ccc(=O)c(O)c-2oc2c(O)c(O)ccc12 [3-(4,5,6-trihydroxy-3-oxo-3H-xanthen-9-ylpropanoic acid]
- IC50 [1]: 2.5 µM

SMILES: O=C(O)C1CCCCC1c1c2ccc(=O)c(O)c-2oc2c(O)c(O)ccc12 (centres unmarked) [drawing 103]
- IC50 (SIGK IC50, Table 6): 0.2 µM

SMILES: O=C(O)/C=C/c1c2ccc(=O)cc-2oc2cc(O)ccc12 [(E)-3-(6-hydroxy-3-oxo-3H-xanthe-9-yl)acrylic acid]
- binding to the G protein β subunit: Neither of these compounds showed any binding

SMILES: O=C1C=CC2C(=C1O)Oc1c(ccc(O)c1O)/C2=C\C=C(O)O (centres unmarked)
- IC50 (Table 6): 0.2 µM

SMILES: O=C(O)C1C2C=CC(C2)C1c1c2ccc(=O)cc-2oc2cc(O)ccc12 (centres unmarked) [3-(6-hydroxy-3-oxo-3H-xanthen-9yl)bicyclo[2.2.1]hept-5-ene-2-carboxylic acid]
- IC50 [1]: 14 µM

SMILES: Cc1c2cc(O)c(=O)cc-2oc2cc(O)c(O)cc12 [2,6,7-trihydroxy-9-methyl-3H-xanthen-3-one]
- binding to the G protein β subunit: did not provide a compound that exhibited binding

SMILES: Nc1ccc(-c2ccc(Nc3cc(S(=O)(=O)O)c(N)c4c3C(=O)c3ccccc3C4=O)cc2)c(S(=O)(=O)O)c1 [drawing 54]
- IC50 (Table 2, read-out: Elisa IC50): 18 µM

SMILES: Nc1cccc(Nc2cc(S(=O)(=O)O)c(N)c3c2C(=O)c2ccccc2C3=O)c1 [drawing 52]
- IC50 (Table 2, read-out: Elisa IC50): 19 µM
